In patent publication US10815230B2, “Casein kinase 1 delta inhibitor” (ELECTROPHORETICS LIMITED, priority 2015, dated 2020):
Several values for one entry are separate records, joined by “and”; a condition that tells them apart may be missing. Equal values may be shown once. Read-outs that look alike come from different tables or passages of the source.

What was measured:
RIOK1 = RIOK1 (Homo sapiens, UniProt Q9BRS2); assay: KINOMEscan binding assay; conditions: read-out: % Ctrl @ 10000 nM
PAK1 = PAK1 (Homo sapiens, UniProt Q13153); assay: KINOMEscan binding assay; conditions: read-out: % Ctrl @ 10000 nM
ITK = ITK (Homo sapiens, UniProt Q08881); assay: KINOMEscan binding assay; conditions: read-out: % Ctrl @ 10000 nM
SNARK = SNARK (Homo sapiens, UniProt Q9H093); assay: KINOMEscan binding assay; conditions: read-out: % Ctrl @ 10000 nM
PCTK1 = PCTK1 (Homo sapiens, UniProt Q00536); assay: KINOMEscan binding assay; conditions: read-out: % Ctrl @ 10000 nM
NIM1 = NIM1 (Homo sapiens, UniProt Q8IY84); assay: KINOMEscan binding assay; conditions: read-out: % Ctrl @ 10000 nM
SRMS = SRMS (Homo sapiens, UniProt Q9H3Y6); assay: KINOMEscan binding assay; conditions: read-out: % Ctrl @ 10000 nM
[1] = Determination of compound in plasma and brain by LC-MS/MS; type: in vivo; conditions: TMHT mice of experiment 5.5, 30 mg/kg orally for 8 weeks; for concentration in cortex: cortex at sacrifice; for concentration in plasma: plasma at sacrifice; for concentration in rest of brain: rest of brain at sacrifice; for concentration at 8 weeks: TMHT, mouse, oral, 30 mg/kg
Procedure: Plasma and brain samples derived from the experiments in 5.5 were pooled from single time point and were analysed for the presence and concentration of Comparative Compound 324 and Compound A by LC-MS/MS after protein precipitation over the calibration range of 0.5-10,000 ng/mL. Chrysin (Sigma®), control mouse plasma and brain (obtained from a commercial supplier) were used as internal standards.
All instrument control, data collection, peak area integration and storage were performed using Thermo Finnigan TSQ Quantum Ultra Mass Spectrometer in conjunction with LCQuan software (v.2.5.6). The mass spectrometer response (peak area ratio of analyte to internal standard) of each calibration standard was calculated by Watson LIMS (v. 7.2) and plotted against the nominal concentration. A weighted least square quadratic regression analysis was used to calculate an equation of the calibration line using one of the standard fits in Watson LIMS. Concentration of Comparative Compound 324 and Compound A in the plasma and brain samples were back calculated from the calibration lines to 3 significant figures. All results reported are from samples that passed the following criteria:
[formula] • At least 7 calibration standards within ±20% RE of their target concentrations. • At least 66% of QC samples within ±20% RE of their respective target values. Within at least one acceptable at each level when n=3 and two when n=6.
The analytical method was as summarised below in Table 14:
In total 32 samples were analysed. Quality control (QC) samples at concentration of 10, 100 and 1000 ng/mL were freshly prepared on the day of the analysis.

TNNI3K = TNNI3K (Homo sapiens, UniProt Q59H18); assay: KINOMEscan binding assay; conditions: read-out: % Ctrl @ 10000 nM
MEK6 = MEK6 (Homo sapiens, UniProt P52564); assay: KINOMEscan binding assay; conditions: read-out: % Ctrl @ 10000 nM
HASPIN = HASPIN (Homo sapiens, UniProt Q8TF76); assay: KINOMEscan binding assay; conditions: read-out: % Ctrl @ 10000 nM
IRAK3 = IRAK3 (Homo sapiens, UniProt Q9Y616); assay: KINOMEscan binding assay; conditions: read-out: % Ctrl @ 10000 nM
TYK2 JH1domain-catalytic = TYK2 JH1domain-catalytic (Homo sapiens, UniProt P29597); assay: KINOMEscan binding assay; conditions: read-out: % Ctrl @ 10000 nM
MRCKA = MRCKA (Homo sapiens, UniProt Q5VT25); assay: KINOMEscan binding assay; conditions: read-out: % Ctrl @ 10000 nM
LTK = biological target: T1, LTK (Homo sapiens, UniProt P29376); assay: KINOMEscan binding assay; conditions: read-out: % Ctrl @ 10000 nM
T1 construct: T7 phage fusion (most assays) or DNA label after HEK293 expression; purchased DiscoveRx (KINOMEscan, LeadHunter Discovery services); host or cells: T7 phage in E. coli (BL21-derived) or HEK293

PIK3CA (M1043I) = PIK3CA (M1043I) (Homo sapiens, UniProt P42336, M1043I); assay: KINOMEscan binding assay; conditions: read-out: % Ctrl @ 10000 nM
OSR1 = OSR1 (Homo sapiens, UniProt O95747); assay: KINOMEscan binding assay; conditions: read-out: % Ctrl @ 10000 nM
CDK9 = CDK9 (Homo sapiens, UniProt P50750); assay: KINOMEscan binding assay; conditions: read-out: % Ctrl @ 10000 nM
PFCDPK1 P. falciparum = PFCDPK1 P. falciparum (Plasmodium falciparum, UniProt P62344); assay: KINOMEscan binding assay; conditions: read-out: % Ctrl @ 10000 nM
PRKG2 = PRKG2 (Homo sapiens, UniProt Q13237); assay: KINOMEscan binding assay; conditions: read-out: % Ctrl @ 10000 nM
DLK = DLK (Homo sapiens, UniProt Q12852); assay: KINOMEscan binding assay; conditions: read-out: % Ctrl @ 10000 nM
CDK4-cyclinD1 = CDK4-cyclinD1 (Homo sapiens, UniProt P11802); assay: KINOMEscan binding assay; conditions: read-out: % Ctrl @ 10000 nM
NEK6 = NEK6 (Homo sapiens, UniProt Q9HC98); assay: KINOMEscan binding assay; conditions: read-out: % Ctrl @ 10000 nM
CIT = CIT (Homo sapiens, UniProt O14578); assay: KINOMEscan binding assay; conditions: read-out: % Ctrl @ 10000 nM
MLK3 = MLK3 (Homo sapiens, UniProt Q16584); assay: KINOMEscan binding assay; conditions: read-out: % Ctrl @ 10000 nM
MAST1 = MAST1 (Homo sapiens, UniProt Q9Y2H9); assay: KINOMEscan binding assay; conditions: read-out: % Ctrl @ 10000 nM
TTK = TTK (Homo sapiens, UniProt P33981); assay: KINOMEscan binding assay; conditions: read-out: % Ctrl @ 10000 nM
CAMK2G = CAMK2G (Homo sapiens, UniProt Q13555); assay: KINOMEscan binding assay; conditions: read-out: % Ctrl @ 10000 nM
MAP3K15 = biological target: T2, MAP3K15 (Homo sapiens, UniProt Q6ZN16); assay: KINOMEscan binding assay; conditions: read-out: % Ctrl @ 10000 nM
T2 construct: T7 phage fusion (most assays) or DNA label after HEK293 expression; purchased DiscoveRx (KINOMEscan, LeadHunter Discovery services); host or cells: T7 phage in E. coli (BL21-derived) or HEK293

EPHB6 = EPHB6 (Homo sapiens, UniProt O15197); assay: KINOMEscan binding assay; conditions: read-out: % Ctrl @ 10000 nM
CDKL2 = CDKL2 (Homo sapiens, UniProt Q92772); assay: KINOMEscan binding assay; conditions: read-out: % Ctrl @ 10000 nM
EPHA4 = EPHA4 (Homo sapiens, UniProt P54764); assay: KINOMEscan binding assay; conditions: read-out: % Ctrl @ 10000 nM
MAP3K4 = biological target: T3, MAP3K4 (Homo sapiens, UniProt Q9Y6R4); assay: KINOMEscan binding assay; conditions: read-out: % Ctrl @ 10000 nM
T3 construct: T7 phage fusion (most assays) or DNA label after HEK293 expression; purchased DiscoveRx (KINOMEscan, LeadHunter Discovery services); host or cells: T7 phage in E. coli (BL21-derived) or HEK293

[2] = hippocampus at sacrifice, LC-MS/MS, one value per mouse

Chain of MLK3 (Q16584 whole entry): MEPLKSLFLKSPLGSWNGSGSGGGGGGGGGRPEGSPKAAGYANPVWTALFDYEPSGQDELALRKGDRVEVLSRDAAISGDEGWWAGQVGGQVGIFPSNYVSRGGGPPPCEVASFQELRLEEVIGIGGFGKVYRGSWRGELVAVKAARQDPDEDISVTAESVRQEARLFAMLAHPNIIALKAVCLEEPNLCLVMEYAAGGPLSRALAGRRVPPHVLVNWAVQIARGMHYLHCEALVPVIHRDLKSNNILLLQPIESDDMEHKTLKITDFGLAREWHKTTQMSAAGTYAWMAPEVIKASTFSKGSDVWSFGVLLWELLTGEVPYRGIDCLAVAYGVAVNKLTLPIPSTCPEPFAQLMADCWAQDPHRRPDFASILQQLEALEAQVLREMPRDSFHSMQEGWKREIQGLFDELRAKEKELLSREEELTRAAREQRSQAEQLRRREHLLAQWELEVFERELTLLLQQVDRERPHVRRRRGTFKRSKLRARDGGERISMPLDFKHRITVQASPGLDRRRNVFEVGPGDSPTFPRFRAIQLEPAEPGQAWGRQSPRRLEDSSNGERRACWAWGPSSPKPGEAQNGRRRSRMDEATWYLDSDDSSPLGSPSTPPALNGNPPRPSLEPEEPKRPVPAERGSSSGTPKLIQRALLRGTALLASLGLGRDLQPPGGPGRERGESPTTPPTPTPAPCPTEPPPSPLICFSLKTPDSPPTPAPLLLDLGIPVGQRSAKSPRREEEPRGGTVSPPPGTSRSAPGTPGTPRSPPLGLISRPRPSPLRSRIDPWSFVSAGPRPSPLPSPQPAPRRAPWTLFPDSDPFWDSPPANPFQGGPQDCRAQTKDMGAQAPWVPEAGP
Chain of PAK1 (Q13153 whole entry): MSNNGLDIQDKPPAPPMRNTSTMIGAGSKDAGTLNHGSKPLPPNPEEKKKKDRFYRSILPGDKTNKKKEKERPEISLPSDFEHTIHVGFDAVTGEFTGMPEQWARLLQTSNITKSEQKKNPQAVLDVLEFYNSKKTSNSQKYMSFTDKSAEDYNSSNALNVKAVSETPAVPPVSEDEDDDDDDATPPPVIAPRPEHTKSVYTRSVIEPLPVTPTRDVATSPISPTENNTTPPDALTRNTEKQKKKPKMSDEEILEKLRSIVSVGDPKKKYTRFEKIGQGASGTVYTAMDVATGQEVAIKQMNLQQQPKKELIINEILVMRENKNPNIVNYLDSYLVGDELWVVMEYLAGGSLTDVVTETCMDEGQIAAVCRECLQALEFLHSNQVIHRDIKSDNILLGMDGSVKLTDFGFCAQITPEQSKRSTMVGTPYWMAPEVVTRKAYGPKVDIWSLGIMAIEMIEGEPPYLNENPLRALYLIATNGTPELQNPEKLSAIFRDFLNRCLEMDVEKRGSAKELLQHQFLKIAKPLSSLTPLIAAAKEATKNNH
Chain of NEK6 (Q9HC98 whole entry): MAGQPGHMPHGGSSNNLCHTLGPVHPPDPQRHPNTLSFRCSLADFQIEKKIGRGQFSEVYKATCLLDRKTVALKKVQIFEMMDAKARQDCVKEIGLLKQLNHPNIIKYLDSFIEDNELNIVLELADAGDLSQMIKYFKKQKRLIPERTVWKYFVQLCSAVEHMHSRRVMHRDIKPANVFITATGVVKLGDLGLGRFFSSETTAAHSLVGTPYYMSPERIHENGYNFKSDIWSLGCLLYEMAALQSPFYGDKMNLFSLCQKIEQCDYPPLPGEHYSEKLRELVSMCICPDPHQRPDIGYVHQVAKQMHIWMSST
Chain of ITK (Q08881 whole entry): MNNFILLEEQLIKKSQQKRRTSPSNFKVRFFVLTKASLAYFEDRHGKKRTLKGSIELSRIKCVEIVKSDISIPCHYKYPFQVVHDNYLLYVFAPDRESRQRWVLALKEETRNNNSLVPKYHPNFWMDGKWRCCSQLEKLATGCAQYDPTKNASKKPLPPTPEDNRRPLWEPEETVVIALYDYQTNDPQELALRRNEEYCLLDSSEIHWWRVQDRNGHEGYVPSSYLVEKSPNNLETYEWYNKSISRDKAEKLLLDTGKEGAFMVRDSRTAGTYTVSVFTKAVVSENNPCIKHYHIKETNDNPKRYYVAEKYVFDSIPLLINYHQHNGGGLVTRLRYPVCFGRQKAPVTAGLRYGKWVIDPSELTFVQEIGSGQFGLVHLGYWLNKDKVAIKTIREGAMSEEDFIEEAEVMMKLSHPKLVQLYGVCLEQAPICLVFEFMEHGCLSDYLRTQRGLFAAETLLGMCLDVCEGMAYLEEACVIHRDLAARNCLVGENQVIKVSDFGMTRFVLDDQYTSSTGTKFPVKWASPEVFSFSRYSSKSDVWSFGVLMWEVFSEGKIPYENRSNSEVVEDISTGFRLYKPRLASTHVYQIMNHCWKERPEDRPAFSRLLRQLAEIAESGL
Chain of MAST1 (Q9Y2H9 whole entry): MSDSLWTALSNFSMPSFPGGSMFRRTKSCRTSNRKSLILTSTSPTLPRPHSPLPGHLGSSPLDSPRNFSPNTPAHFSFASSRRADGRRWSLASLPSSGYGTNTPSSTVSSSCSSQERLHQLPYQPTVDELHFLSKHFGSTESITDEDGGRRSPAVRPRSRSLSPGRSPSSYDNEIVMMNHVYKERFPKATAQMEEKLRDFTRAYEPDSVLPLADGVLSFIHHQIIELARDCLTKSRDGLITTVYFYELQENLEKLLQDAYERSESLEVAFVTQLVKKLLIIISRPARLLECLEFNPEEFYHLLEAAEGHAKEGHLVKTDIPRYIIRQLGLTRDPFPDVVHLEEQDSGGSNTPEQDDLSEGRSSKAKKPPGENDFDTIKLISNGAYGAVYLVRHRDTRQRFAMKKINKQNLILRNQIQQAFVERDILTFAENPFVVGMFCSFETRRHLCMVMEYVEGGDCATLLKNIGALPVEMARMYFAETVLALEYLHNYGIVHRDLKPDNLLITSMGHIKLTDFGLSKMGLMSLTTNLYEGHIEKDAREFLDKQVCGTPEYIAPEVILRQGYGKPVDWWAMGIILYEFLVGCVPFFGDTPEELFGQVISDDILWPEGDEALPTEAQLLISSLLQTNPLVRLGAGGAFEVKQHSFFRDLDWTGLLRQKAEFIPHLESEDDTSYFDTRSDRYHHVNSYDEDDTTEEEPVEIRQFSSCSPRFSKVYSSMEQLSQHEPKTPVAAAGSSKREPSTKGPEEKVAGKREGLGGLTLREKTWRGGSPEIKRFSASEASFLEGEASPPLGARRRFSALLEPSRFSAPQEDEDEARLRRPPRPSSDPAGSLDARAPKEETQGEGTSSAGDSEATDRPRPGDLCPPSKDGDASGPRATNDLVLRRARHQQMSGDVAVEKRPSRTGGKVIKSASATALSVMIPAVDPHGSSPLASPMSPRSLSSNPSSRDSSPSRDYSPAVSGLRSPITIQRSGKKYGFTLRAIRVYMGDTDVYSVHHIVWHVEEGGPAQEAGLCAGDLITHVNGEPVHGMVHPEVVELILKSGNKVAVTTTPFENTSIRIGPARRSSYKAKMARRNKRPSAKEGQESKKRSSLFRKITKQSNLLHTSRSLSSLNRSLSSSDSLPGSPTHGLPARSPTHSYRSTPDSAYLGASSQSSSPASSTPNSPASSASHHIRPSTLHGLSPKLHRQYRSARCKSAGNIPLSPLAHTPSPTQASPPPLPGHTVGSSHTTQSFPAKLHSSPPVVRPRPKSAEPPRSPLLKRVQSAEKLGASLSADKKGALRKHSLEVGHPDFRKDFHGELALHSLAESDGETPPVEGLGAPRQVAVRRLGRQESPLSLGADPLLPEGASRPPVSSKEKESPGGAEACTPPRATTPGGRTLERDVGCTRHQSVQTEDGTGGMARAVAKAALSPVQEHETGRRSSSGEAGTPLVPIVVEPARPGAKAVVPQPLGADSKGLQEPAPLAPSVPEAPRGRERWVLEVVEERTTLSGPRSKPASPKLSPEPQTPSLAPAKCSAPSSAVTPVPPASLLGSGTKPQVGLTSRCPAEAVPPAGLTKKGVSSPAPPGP
Chain of NIM1 (Q8IY84 whole entry): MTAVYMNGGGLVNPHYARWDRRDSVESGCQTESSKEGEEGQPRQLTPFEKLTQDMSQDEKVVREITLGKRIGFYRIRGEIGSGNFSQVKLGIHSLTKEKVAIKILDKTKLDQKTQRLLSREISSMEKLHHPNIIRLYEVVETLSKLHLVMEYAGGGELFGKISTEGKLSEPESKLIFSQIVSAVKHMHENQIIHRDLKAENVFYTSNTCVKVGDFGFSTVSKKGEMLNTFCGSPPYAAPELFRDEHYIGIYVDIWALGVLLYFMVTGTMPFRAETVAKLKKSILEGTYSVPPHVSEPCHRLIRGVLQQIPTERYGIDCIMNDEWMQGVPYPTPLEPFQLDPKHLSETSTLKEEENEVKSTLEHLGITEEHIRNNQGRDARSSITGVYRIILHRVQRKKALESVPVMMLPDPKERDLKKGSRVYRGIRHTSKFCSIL
Chain of TYK2 JH1domain-catalytic (P29597 897-1176 limits assumed): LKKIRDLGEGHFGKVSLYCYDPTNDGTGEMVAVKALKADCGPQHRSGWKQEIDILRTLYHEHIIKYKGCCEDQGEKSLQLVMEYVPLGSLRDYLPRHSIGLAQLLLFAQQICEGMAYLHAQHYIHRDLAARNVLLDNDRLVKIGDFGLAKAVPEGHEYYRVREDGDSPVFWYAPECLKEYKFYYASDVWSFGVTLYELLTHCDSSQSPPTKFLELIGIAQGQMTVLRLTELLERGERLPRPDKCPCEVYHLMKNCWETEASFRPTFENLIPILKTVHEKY
Chain of MEK6 (P52564 whole entry): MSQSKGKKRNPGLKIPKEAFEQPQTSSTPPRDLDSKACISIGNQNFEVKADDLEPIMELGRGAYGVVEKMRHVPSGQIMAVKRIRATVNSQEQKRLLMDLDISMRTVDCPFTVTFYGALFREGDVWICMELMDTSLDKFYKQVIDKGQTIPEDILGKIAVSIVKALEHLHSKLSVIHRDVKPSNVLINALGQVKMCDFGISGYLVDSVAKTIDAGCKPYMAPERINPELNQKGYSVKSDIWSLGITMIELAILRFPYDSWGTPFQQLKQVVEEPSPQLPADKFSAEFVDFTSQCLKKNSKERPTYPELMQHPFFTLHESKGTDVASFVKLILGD

With `Nc1ncc(-c2nc3ccccc3o2)c(-c2ccncc2)n1` [Comparative Compound 324, 5-(1,3-benzoxazol-2-yl)-4-(pyridine-4-yl)pyrimidin-2-amine] the remaining binding at 10 µM (RIOK1) was 100%, the remaining binding at 10 µM (PAK1) was 75% and the remaining binding at 10 µM (ITK) was 86%. The remaining binding at 10 µM (SNARK) was 98%, the remaining binding at 10 µM (PCTK1) was 95% and the remaining binding at 10 µM (NIM1) was 96%. The remaining binding at 10 µM (SRMS) was 100%, the concentration in cortex ([1]; LC-MS/MS, one value per mouse) was 14.3 ng/mL and 108 ng/mL and 1.98 ng/mL and 10.5 ng/mL and 10.7 ng/mL and 0.536 ng/mL and 15.3 ng/mL and 6.41 ng/mL and the concentration in hippocampus [1, 2] was 11.9 ng/mL and 87.0 ng/mL and BLQ (2×) and 12.6 ng/mL and 11.5 ng/mL and 15.1 ng/mL and 6.12 ng/mL. The concentration in plasma ([1]; LC-MS/MS, one value per mouse) was 295 ng/mL and 1450 ng/mL and 34.2 ng/mL and 230 ng/mL and 225 ng/mL and 10.5 ng/mL and 287 ng/mL and 138 ng/mL, the “concentration in rest of brain” value ([1]; LC-MS/MS, one value per mouse) was 16.2 ng/mL and 122 ng/mL and 9.97 ng/mL and 9.75 ng/mL and 10.8 ng/mL and 1.12 ng/mL and 16.0 ng/mL and 7.09 ng/mL and the remaining binding at 10 µM (TNNI3K) was 100%. For the same compound, the remaining binding at 10 µM (MEK6) was 98%, the remaining binding at 10 µM (HASPIN) was 70% and the remaining binding at 10 µM (IRAK3) was 90%. It also gave a remaining binding at 10 µM (TYK2 JH1domain-catalytic) of 86%, a remaining binding at 10 µM (MRCKA) of 99% and a remaining binding at 10 µM (LTK) of 74%. The remaining binding at 10 µM (PIK3CA (M1043I)) was 100%, the remaining binding at 10 µM (OSR1) was 100% and the remaining binding at 10 µM (CDK9) was 83%. The remaining binding at 10 µM (PFCDPK1 P. falciparum) was 78%, the remaining binding at 10 µM (PRKG2) was 82% and the remaining binding at 10 µM (DLK) was 91%. For the same compound, the remaining binding at 10 µM (CDK4-cyclinD1) was 85%, the remaining binding at 10 µM (NEK6) was 91% and the remaining binding at 10 µM (CIT) was 73%. For the same compound, the remaining binding at 10 µM (MLK3) was 83%, the remaining binding at 10 µM (MAST1) was 86% and the remaining binding at 10 µM (TTK) was 100%. It also gave a remaining binding at 10 µM (CAMK2G) of 100%, a remaining binding at 10 µM (MAP3K15) of 100% and a remaining binding at 10 µM (EPHB6) of 65%. For the same compound, the remaining binding at 10 µM (CDKL2) was 100%, the remaining binding at 10 µM (EPHA4) was 100% and the remaining binding at 10 µM (MAP3K4) was 51%.
`CNc1c(C(N)=O)c2ccccn2c1C(=O)c1ccc(F)cc1` [Compound A, 2-methyl-amino-3-[(4-fluorophenyl)carbonyl]indolizine-1-carboxamide] gave a remaining binding at 10 µM (RIOK1) of 100%, a remaining binding at 10 µM (PAK1) of 71% and a remaining binding at 10 µM (ITK) of 78%. The remaining binding at 10 µM (SNARK) was 91%, the remaining binding at 10 µM (PCTK1) was 89% and the remaining binding at 10 µM (NIM1) was 87%. For the same compound, the remaining binding at 10 µM (SRMS) was 93%, the concentration in cortex ([1]; LC-MS/MS, one value per mouse) was “BLQ (2×) and 12.6 ng/mL and 9.67 ng/mL and 14.9 ng/mL and 8.92 ng/mL and 2.51 ng/mL and 17.7 ng/mL” and the concentration in hippocampus [1, 2] was “BLQ (3×) and 8.23 ng/mL and 12.8 ng/mL and 9.33 ng/mL and 10.3 ng/mL”. For the same compound, the concentration in plasma ([1]; LC-MS/MS, one value per mouse) was 12.6 ng/mL and 207 ng/mL and 203 ng/mL and 274 ng/mL and 188 ng/mL and 16.9 ng/mL and 319 ng/mL and 25.6 ng/mL, the “concentration in rest of brain” value ([1]; LC-MS/MS, one value per mouse) was “BLQ (2×) and 12.7 ng/mL and 10.5 ng/mL and 14.1 ng/mL and 12.9 ng/mL and 19.0 ng/mL and 2.66 ng/mL” and the concentration at 8 weeks ([1]; brain, SEM 1.05, read-out: concentration in the brain (Mean ±SEM)) was roughly 11.1 ng/mL. It also gave a concentration at 8 weeks ([1]; hippocampus, hippocampus at sacrifice, LC-MS/MS, one value per mouse, read-out: concentration in hippocampus) of 10.5 ng/mL, a remaining binding at 10 µM (TNNI3K) of 78% and a remaining binding at 10 µM (MEK6) of 73%. The remaining binding at 10 µM (HASPIN) was 45%, the remaining binding at 10 µM (IRAK3) was 60% and the remaining binding at 10 µM (TYK2 JH1domain-catalytic) was 71%. It also gave a remaining binding at 10 µM (MRCKA) of 94%, a remaining binding at 10 µM (LTK) of 85% and a remaining binding at 10 µM (PIK3CA (M1043I)) of 100%. It also gave a remaining binding at 10 µM (OSR1) of 99%, a remaining binding at 10 µM (CDK9) of 74% and a remaining binding at 10 µM (PFCDPK1 P. falciparum) of 0.9%. The remaining binding at 10 µM (PRKG2) was 76%, the remaining binding at 10 µM (DLK) was 84% and the remaining binding at 10 µM (CDK4-cyclinD1) was 47%. It also gave a remaining binding at 10 µM (NEK6) of 76%, a remaining binding at 10 µM (CIT) of 58% and a remaining binding at 10 µM (MLK3) of 83%. The remaining binding at 10 µM (MAST1) was 75%, the remaining binding at 10 µM (TTK) was 92% and the remaining binding at 10 µM (CAMK2G) was 87%. It also gave a remaining binding at 10 µM (MAP3K15) of 94%, a remaining binding at 10 µM (EPHB6) of 64% and a remaining binding at 10 µM (CDKL2) of 85%. For the same compound, the remaining binding at 10 µM (EPHA4) was 98% and the remaining binding at 10 µM (MAP3K4) was 35%.
